Experimental data published in ChEMBL document CHEMBL1201862, “PubChem BioAssay data set” (2004).
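96-well plates; 48 h exposure; 5 concentrations. Endpoints by linear interpolation between flanking doses. Not reached: highest tested concentration assigned. Here, GI50 denotes the concentration required for 50% inhibition of growth.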 Calls of active or inactive are those of the source. Cut-off read from the data, not from the text of the source: active = GI50 up to about 1.1 µM and inactive = higher.

How the values were obtained:
Test in all cases: NCI tumour cell line growth inhibition, 48 h
MOLT-4 = tested on: MOLT-4
COLO 205 = tested on: COLO 205
SF-295 = tested on: SF-295
UACC-62 = tested on: UACC-62
TK-10 = tested on: TK-10
A498 = tested on: A498
LOX IMVI = tested on: LOX IMVI
SK-MEL-28 = tested on: SK-MEL-28
NCI-H226 = tested on: NCI-H226
HOP-92 = tested on: HOP-92
SNB-75 = tested on: SNB-75
K562 = tested on: K562
MDA-MB-435 = tested on: MDA-MB-435
SK-OV-3 = tested on: SK-OV-3
SK-MEL-5 = tested on: SK-MEL-5
T47D = tested on: T47D
MDA-MB-231 = tested on: MDA-MB-231
HCT-15 = tested on: HCT-15
HT-29 = tested on: HT-29
Malme-3M = tested on: Malme-3M
KM12 = tested on: KM12
UO-31 = tested on: UO-31
HCT-116 = tested on: HCT-116
NCI-H23 = tested on: NCI-H23
OVCAR-8 = tested on: OVCAR-8
DU-145 = tested on: DU-145
M14 = tested on: M14
IGROV-1 = tested on: IGROV-1
HCC 2998 = tested on: HCC 2998
CAKI-1 = tested on: CAKI-1
NCI-H460 = tested on: NCI-H460
NCI/ADR-RES = tested on: NCI/ADR-RES
MCF7 = tested on: MCF7
SF-268 = tested on: SF-268
786-0 = tested on: 786-0
Hs-578T = tested on: Hs-578T
A549 = tested on: A549
SW-620 = tested on: SW-620
MDA-N = tested on: MDA-N
RXF 393 = tested on: RXF 393
OVCAR-4 = tested on: OVCAR-4
PC-3 = tested on: PC-3
UACC-257 = tested on: UACC-257
U-251 = tested on: U-251
CCRF-CEM = tested on: CCRF-CEM
SNB-19 = tested on: SNB-19
ACHN = tested on: ACHN
SN12C = tested on: SN12C
RPMI-8226 = tested on: RPMI-8226
EKVX = tested on: EKVX
HOP-62 = tested on: HOP-62
OVCAR-3 = tested on: OVCAR-3
SF-539 = tested on: SF-539
SR = tested on: SR
NCI-H522 = tested on: NCI-H522
HL-60 = tested on: HL-60
OVCAR-5 = tested on: OVCAR-5

In the case of `OCC1NC(CO)C(O)C1O` (stereo not given), the GI50 (MOLT-4) is reported as > 100 µM (inactive), the GI50 (COLO 205) is reported as > 100 µM (inactive) and the GI50 (SF-295) is reported as > 100 µM (inactive). For the same molecule, the GI50 (UACC-62) was > 100 µM (inactive), the GI50 (TK-10) was > 100 µM (inactive) and the GI50 (A498) was > 100 µM (inactive). For the same molecule, the GI50 (LOX IMVI) was > 100 µM (inactive), the GI50 (SK-MEL-28) was > 100 µM (inactive) and the GI50 (NCI-H226) was > 100 µM (inactive). The GI50 (HOP-92) was > 100 µM (inactive), the GI50 (SNB-75) was > 100 µM (inactive) and the GI50 (K562) was > 100 µM (inactive). For the same molecule, the GI50 (MDA-MB-435) was > 100 µM (inactive), the GI50 (SK-OV-3) was > 100 µM (inactive) and the GI50 (SK-MEL-5) was > 100 µM (inactive). The GI50 (T47D) was > 100 µM (inactive), the GI50 (MDA-MB-231) was > 100 µM (inactive) and the GI50 (HCT-15) was > 100 µM. For the same molecule, the GI50 (HT-29) was > 100 µM (inactive), the GI50 (Malme-3M) was > 100 µM (inactive) and the GI50 (KM12) was > 100 µM (inactive). The GI50 (UO-31) was > 100 µM (inactive), the GI50 (HCT-116) was > 100 µM (inactive) and the GI50 (NCI-H23) was > 100 µM (inactive). The GI50 (OVCAR-8) was > 100 µM (inactive), the GI50 (DU-145) was > 100 µM (inactive) and the GI50 (M14) was > 100 µM (inactive). The GI50 (IGROV-1) was > 100 µM (inactive), the GI50 (HCC 2998) was > 100 µM (inactive) and the GI50 (CAKI-1) was > 100 µM (inactive). The GI50 (NCI-H460) was > 100 µM (inactive), the GI50 (NCI/ADR-RES) was > 100 µM (inactive) and the GI50 (MCF7) was > 100 µM (inactive).
With `COc1ccc2c(ccc3c(C(=O)NCCCN(C)CCCNC(=O)c4cn(C)c5c4ccc4cc(OC)ccc45)cn(C)c32)c1` the GI50 (MOLT-4) was 2.23 µM (inactive), the GI50 (COLO 205) was 2.11 µM (inactive) and the GI50 (SF-295) was 2.15 µM (inactive). For the same molecule, the GI50 (SF-268) was 1.78 µM (inactive), the GI50 (786-0) was 1.49 µM (inactive) and the GI50 (UACC-62) was 1.77 µM (inactive). For the same molecule, the GI50 (Hs-578T) was 2.33 µM (inactive), the GI50 (A498) was 28.6 µM (inactive) and the GI50 (LOX IMVI) was 2.26 µM (inactive). For the same molecule, the GI50 (A549) was 1.43 µM (inactive), the GI50 (SW-620) was 1.83 µM (inactive) and the GI50 (MDA-N) was 1.53 µM (inactive). For the same molecule, the GI50 (SK-MEL-28) was 1.77 µM (inactive), the GI50 (RXF 393) was 2.12 µM (inactive) and the GI50 (OVCAR-4) was 1.71 µM (inactive). For the same molecule, the GI50 (K562) was 0.403 µM (active), the GI50 (PC-3) was 1.55 µM (inactive) and the GI50 (UACC-257) was 1.57 µM (inactive). The GI50 (MDA-MB-435) was 1.89 µM (inactive), the GI50 (U-251) was 1.92 µM (inactive) and the GI50 (SK-MEL-5) was 1.9 µM (inactive). For the same molecule, the GI50 (HCT-15) was 1.32 µM, the GI50 (CCRF-CEM) was 1.07 µM (active) and the GI50 (SNB-19) was 1.79 µM (inactive). The GI50 (KM12) was 1.56 µM (inactive), the GI50 (UO-31) was 1.66 µM (inactive) and the GI50 (HCT-116) was 1.73 µM (inactive). For the same molecule, the GI50 (NCI-H23) was 1.58 µM (inactive), the GI50 (DU-145) was 1.67 µM (inactive) and the GI50 (M14) was 1.59 µM (inactive). For the same molecule, the GI50 (IGROV-1) was 1.53 µM (inactive), the GI50 (ACHN) was 1.66 µM (inactive) and the GI50 (SN12C) was 1.57 µM (inactive). For the same molecule, the GI50 (HCC 2998) was 1.61 µM (inactive), the GI50 (CAKI-1) was 1.64 µM (inactive) and the GI50 (RPMI-8226) was 2.35 µM (inactive). For the same molecule, the GI50 (NCI-H460) was 1.47 µM (inactive) and the GI50 (EKVX) was 1.57 µM (inactive).
In the case of `CC(O)C(CO)NC(=O)C1CSSCC(NC(=O)C(N)Cc2ccccc2)C(=O)NC(Cc2ccccc2)C(=O)NC(Cc2c[nH]c3ccccc23)C(=O)NC(CCCCN)C(=O)NC(C(C)O)C(=O)N1` (stereo not given), the GI50 (MOLT-4) is reported as > 100 µM (inactive), the GI50 (COLO 205) is reported as > 100 µM (inactive) and the GI50 (SF-295) is reported as > 100 µM (inactive). For the same molecule, the GI50 (SF-268) was > 100 µM (inactive), the GI50 (786-0) was > 100 µM (inactive) and the GI50 (UACC-62) was > 100 µM (inactive). The GI50 (TK-10) was > 100 µM (inactive), the GI50 (A498) was > 100 µM (inactive) and the GI50 (LOX IMVI) was > 100 µM (inactive). The GI50 (A549) was > 100 µM (inactive), the GI50 (SW-620) was > 100 µM (inactive) and the GI50 (HOP-62) was > 100 µM (inactive). For the same molecule, the GI50 (MDA-N) was > 100 µM (inactive), the GI50 (SK-MEL-28) was > 100 µM (inactive) and the GI50 (RXF 393) was > 100 µM (inactive). The GI50 (NCI-H226) was > 100 µM (inactive), the GI50 (OVCAR-4) was > 100 µM (inactive) and the GI50 (OVCAR-3) was > 100 µM (inactive). The GI50 (SF-539) was > 100 µM (inactive), the GI50 (HOP-92) was > 100 µM (inactive) and the GI50 (SNB-75) was > 100 µM (inactive). For the same molecule, the GI50 (K562) was > 100 µM (inactive), the GI50 (PC-3) was > 100 µM (inactive) and the GI50 (UACC-257) was > 100 µM (inactive). The GI50 (MDA-MB-435) was > 100 µM (inactive), the GI50 (U-251) was > 100 µM (inactive) and the GI50 (SK-MEL-5) was > 100 µM (inactive). The GI50 (T47D) was > 100 µM (inactive), the GI50 (MDA-MB-231) was > 100 µM (inactive) and the GI50 (HCT-15) was > 100 µM. The GI50 (HT-29) was > 100 µM (inactive), the GI50 (Malme-3M) was > 100 µM (inactive) and the GI50 (CCRF-CEM) was > 100 µM (inactive). The GI50 (SNB-19) was > 100 µM (inactive), the GI50 (KM12) was > 100 µM (inactive) and the GI50 (UO-31) was > 100 µM (inactive). The GI50 (HCT-116) was > 100 µM (inactive), the GI50 (NCI-H23) was > 100 µM (inactive) and the GI50 (OVCAR-8) was > 100 µM (inactive). For the same molecule, the GI50 (DU-145) was > 100 µM (inactive), the GI50 (M14) was > 100 µM (inactive) and the GI50 (IGROV-1) was > 100 µM (inactive). The GI50 (ACHN) was > 100 µM (inactive), the GI50 (SR) was > 100 µM (inactive) and the GI50 (NCI-H522) was > 100 µM (inactive). The GI50 (SN12C) was > 100 µM (inactive), the GI50 (HL-60) was > 100 µM (inactive) and the GI50 (CAKI-1) was > 100 µM (inactive). The GI50 (RPMI-8226) was > 100 µM (inactive), the GI50 (NCI-H460) was > 100 µM (inactive) and the GI50 (NCI/ADR-RES) was > 100 µM (inactive). For the same molecule, the GI50 (MCF7) was > 100 µM (inactive), the GI50 (OVCAR-5) was > 100 µM (inactive) and the GI50 (EKVX) was > 100 µM (inactive).
